# Results as given in patent US11419869B2, “Dosage forms and regimens for amino acid compounds” (Pliant Therapeutics, Inc., priority 2019, dated 2022).
# Target: recombinant human integrin αvβ6 (Homo sapiens (Human), UniProt P06756+P18564)
# Assay: Solid Phase Integrin αvβ6 Binding Assay (Examples B1, B2)
# Conditions: TGFβ1 LAP ligand, values given in four ranges, read-out: αvβ6 Inhibition IC50 (nM)-range
# Experimental: (§1) Microplates were coated with recombinant human integrin αvβ6 (2 μg/mL) in PBS (100 μL/well 25° C., overnight). The coating solution was removed, washed with wash buffer (0.05% Tween 20; 0.5 mM MnCl2; in 1×TBS). The plate was blocked with 200 μL/well of Block Buffer (1% BSA; 5% sucrose; 0.5 mM MnCl2; in 1×TBS) at 37° C. for 2 h. Dilutions of testing compounds and recombinant TGFβ1 LAP (0.67 μg/mL) in binding buffer (0.05% BSA; 2.5% sucrose; 0.5 mM MnCl2; in 1×TBS) were added. The plate was incubated for 2 hours at 25° C., washed, and incubated for 1 hour with Biotin-Anti-hLAP. Bound antibody was detected by peroxidase-conjugated streptavidin. The IC50 values for testing compounds were calculated by four-parameter logistic regression.
# The compounds tested were compound samples prepared according to procedures described in the Synthetic Examples section, with the stereochemical purity as indicated in the Examples.
# as §1, with “A third series of exemplary compounds was selected for testing in the solid phase integrin αvβ6 binding assay. The compounds tested were compound samples prepared according to procedures described in the Synthetic Examples section, with the stereochemical purity as indicated in the Examples. As in Example B1, microplates were coated” for “Microplates were coated”, “calculated by a four-parameter logistic” for “calculated by four-parameter logistic”
# recombinant human integrin αvβ6, sequence (P06756 31-992): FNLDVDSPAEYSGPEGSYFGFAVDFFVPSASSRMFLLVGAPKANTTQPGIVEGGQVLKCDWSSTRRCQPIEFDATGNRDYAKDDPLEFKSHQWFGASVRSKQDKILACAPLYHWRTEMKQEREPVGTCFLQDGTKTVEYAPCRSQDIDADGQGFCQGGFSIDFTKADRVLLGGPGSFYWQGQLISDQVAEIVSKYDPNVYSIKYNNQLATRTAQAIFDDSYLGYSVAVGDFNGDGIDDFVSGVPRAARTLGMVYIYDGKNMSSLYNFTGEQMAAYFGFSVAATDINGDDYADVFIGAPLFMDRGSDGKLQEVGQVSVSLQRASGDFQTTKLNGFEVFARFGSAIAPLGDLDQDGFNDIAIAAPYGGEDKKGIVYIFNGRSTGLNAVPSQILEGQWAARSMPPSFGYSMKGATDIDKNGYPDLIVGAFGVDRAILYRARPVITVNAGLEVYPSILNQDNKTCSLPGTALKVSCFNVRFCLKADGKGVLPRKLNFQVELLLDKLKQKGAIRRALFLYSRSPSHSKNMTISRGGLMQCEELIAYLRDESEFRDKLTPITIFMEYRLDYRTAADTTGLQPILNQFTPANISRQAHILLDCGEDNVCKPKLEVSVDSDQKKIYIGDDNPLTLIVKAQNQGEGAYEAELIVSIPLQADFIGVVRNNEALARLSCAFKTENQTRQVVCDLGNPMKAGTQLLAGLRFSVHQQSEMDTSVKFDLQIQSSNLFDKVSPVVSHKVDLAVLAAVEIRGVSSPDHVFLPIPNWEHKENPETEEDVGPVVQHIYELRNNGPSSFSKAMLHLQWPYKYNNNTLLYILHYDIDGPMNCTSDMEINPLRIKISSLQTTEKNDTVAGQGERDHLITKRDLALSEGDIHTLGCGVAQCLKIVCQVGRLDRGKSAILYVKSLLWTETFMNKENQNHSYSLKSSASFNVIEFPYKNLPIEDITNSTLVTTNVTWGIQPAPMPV
# recombinant human integrin αvβ6, sequence (P18564 22-707): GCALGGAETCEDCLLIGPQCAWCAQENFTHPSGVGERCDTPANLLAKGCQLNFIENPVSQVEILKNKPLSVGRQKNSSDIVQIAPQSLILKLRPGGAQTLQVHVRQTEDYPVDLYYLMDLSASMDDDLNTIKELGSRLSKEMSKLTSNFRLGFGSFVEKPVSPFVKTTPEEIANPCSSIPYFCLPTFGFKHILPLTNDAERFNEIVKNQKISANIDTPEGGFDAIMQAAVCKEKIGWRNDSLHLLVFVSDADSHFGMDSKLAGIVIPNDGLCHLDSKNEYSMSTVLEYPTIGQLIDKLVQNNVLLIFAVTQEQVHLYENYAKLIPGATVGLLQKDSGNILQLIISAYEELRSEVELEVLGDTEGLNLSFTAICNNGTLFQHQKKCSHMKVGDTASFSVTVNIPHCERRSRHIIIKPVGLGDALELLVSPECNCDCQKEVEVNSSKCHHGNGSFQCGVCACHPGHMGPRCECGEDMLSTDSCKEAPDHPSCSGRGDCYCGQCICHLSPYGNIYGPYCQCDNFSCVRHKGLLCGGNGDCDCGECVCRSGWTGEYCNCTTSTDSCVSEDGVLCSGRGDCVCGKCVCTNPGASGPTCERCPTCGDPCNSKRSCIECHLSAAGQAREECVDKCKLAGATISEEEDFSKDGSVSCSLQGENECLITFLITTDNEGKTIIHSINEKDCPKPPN
row,IC50 [nM],SMILES
1,< 50,"COCCN(CCCCc1ccc2c(n1)NCCC2)CC[C@H](Nc1ncnc2cccnc12)C(=O)O [Compound 16, (S)-4-((2-methoxyethyl) (4-(5,6,7,8-tetrahydro-1,8-naphthyridin-2-yl)butyl)amino)-2-(pyrido[3,2-d]pyrimidin-4-ylamino) butanoic acid]"
2,< 50,"Cc1ccc(OCCN(CCCCc2ccc3c(n2)NCCC3)CC[C@H](Nc2ncnc3cccnc23)C(=O)O)cn1 [Compound 57, (S)-4-((2-((6-methylpyridin-3-yl)oxy)ethyl) (4-(5,6,7,8-tetrahydro-1,8-naphthyridin-2-yl)butyl)amino)-2-(pyrido[3,2-d]pyrimidin-4-ylamino) butanoic acid]"
3,< 50,"O=C(O)[C@H](CCN(CCCCc1ccc2c(n1)NCCC2)CC(CO)CO)Nc1ncnc2ccccc12 [Compound 130, (S)-4-((3-hydroxy-2-(hydroxymethyl)propyl) (4-(5,6,7,8-tetrahydro-1,8-naphthyridin-2-yl)butyl)amino)-2-(quinazolin-4-ylamino) butanoic acid]"
4,250 to 1000,"CS(=O)(=O)CCN(CCCCc1ccc2c(n1)NCCC2)CC[C@H](Nc1nc(-c2cccnc2)nc2ccccc12)C(=O)O [Compound 107, (S)-4-((2-(methylsufonyl)ethyl) (4-(5,6,7,8-tetrahydro-1,8-naphthyridin-2-yl)butyl)amino)-2-((2-(pyridin-3-yl)quinazolin-4-yl)amino) butanoic acid]"
5,< 50,"COC[C@@H](F)CN(CCCCc1ccc2c(n1)NCCC2)CC[C@H](Nc1ncncc1-c1ccccc1)C(=O)O [Compound 110, (S)-4-(((S)-2-fluoro-3-methoxypropyl) (4-(5,6,7,8-tetrahydro-1,8-naphthyridin-2-yl)butyl)amino)-2-((5-phenylpyrimidin-4-yl)amino) butanoic acid]"
6,< 50,"COCCN(CCCCc1ccc2c(n1)NCCC2)CC[C@H](Nc1ncnc2c(C(F)(F)F)cccc12)C(=O)O [Compound 15, (S)-4-((2-methoxyethyl) (4-(5,6,7,8-tetrahydro-1,8-naphthyridin-2-yl)butyl)amino)-2-((8-(trifluoromethyl)quinazolin-4-yl)amino) butanoic acid]"
7,< 50,"Cc1nc(N[C@@H](CCN(CCCCc2ccc3c(n2)NCCC3)CC2CC(F)(F)C2)C(=O)O)c2ccc(F)cc2n1 [Compound 33, (S)-4-(((3,3-difluorocyclobutyl)methyl) (4-(5,6,7,8-tetrahydro-1,8-naphthyridin-2-yl)butyl)amino)-2-((7-fluoro-2-methylquinazolin-4-yl)amino) butanoic acid]"
8,> 1000,"O=C(O)[C@H](CCN(CCCCc1ccc2c(n1)NCCC2)C1CC(F)(F)C1)Nc1ncnc2ccccc12 [Compound 9, (S)-4-((3,3-difluorocyclobutyl) (4-(5,6,7,8-tetrahydro-1,8-naphthyridin-2-yl)butyl)amino)-2-(quinazolin-4-ylamino) butanoic acid]"
9,< 50,"O=C(O)[C@H](CCN(CCCCc1ccc2c(n1)NCCC2)CCOc1ccccc1)Nc1ncnc2[nH]ncc12 [Compound 90, (S)-2-((1H-pyrazolo[3,4-d]pyrimidin-4-yl)amino)-4-((2-phenoxyethyl) (4-(5,6,7,8-tetrahydro-1,8-naphthyridin-2-yl)butyl)amino) butanoic acid]"
10,> 1000,"O=C(O)[C@H](CCN(CCCCc1ccc2c(n1)NCCC2)CC(F)F)Nc1cc(-n2cccn2)ncn1 [Compound 98, (S)-2-((6-(1H-pyrazol-1-yl)pyrimidin-4-yl)amino)-4-((2,2-difluoroethyl) (4-(5,6,7,8-tetrahydro-1,8-naphthyridin-2-yl)butyl)amino) butanoic acid]"
11,< 50,"Cc1nc(N[C@@H](CCN(CCCCc2ccc3c(n2)NCCC3)CCOc2ccc(F)cc2)C(=O)O)c2ccc(F)cc2n1 [Compound 40, (S)-2-((7-fluoro-2-methylquinazolin-4-yl)amino)-4-((2-(4-fluorophenoxy)ethyl) (4-(5,6,7,8-tetrahydro-1,8-naphthyridin-2-yl)butyl)amino) butanoic acid]"
12,< 50,"COCCN(CCCCc1ccc2c(n1)NCCC2)CC[C@H](Nc1ncnc2cc(F)c(F)cc12)C(=O)O [Compound 21, (S)-2-((6,7-difluoroquinazolin-4-yl)amino)-4-((2-methoxyethyl) (4-(5,6,7,8-tetrahydro-1,8-naphthyridin-2-yl)butyl)amino) butanoic acid]"
13,< 50,"COCCN(CCCCc1ccc2c(n1)NCCC2)CC[C@H](Nc1cc(C)nc(C(F)(F)F)n1)C(=O)O [Compound 26, (S)-4-((2-methoxyethyl) (4-(5,6,7,8-tetrahydro-1,8-naphthyridin-2-yl)butyl)amino)-2-((6-methyl-2-(trifluoromethyl)pyrimidin-4-yl)amino) butanoic acid]"
14,> 1000,"COCCN(CCCCc1ccc2c(n1)NCCC2)CC[C@H](Nc1ccnc2ccccc12)C(=O)O [Compound 36, (S)-4-((2-methoxyethyl) (4-(5,6,7,8-tetrahydro-1,8-naphthyridin-2-yl)butyl)amino)-2-(quinolin-4-ylamino) butanoic acid]"
15,< 50,"CO[C@H](C)CN(CCCCc1ccc2c(n1)NCCC2)CC[C@H](Nc1nc(-c2cccnc2)nc2ccccc12)C(=O)O [Compound 100, (S)-4-(((R)-2-methoxypropyl) (4-(5,6,7,8-tetrahydro-1,8-naphthyridin-2-yl)butyl)amino)-2-((2-(pyridin-3-yl)quinazolin-4-yl)amino) butanoic acid]"
16,< 50,"COCCN(CCCCc1ccc2c(n1)NCCC2)CC[C@H](Nc1cc(-n2cccn2)ncn1)C(=O)O [Compound 44, (S)-2-((6-(1H-pyrazol-1-yl)pyrimidin-4-yl)amino)-4-((2-methoxyethyl) (4-(5,6,7,8-tetrahydro-1,8-naphthyridin-2-yl)butyl)amino) butanoic acid]"
17,< 50,"COc1ccc2c(N[C@@H](CCN(CCCF)CCCCc3ccc4c(n3)NCCC4)C(=O)O)ncnc2c1 [Compound 41, (S)-4-((3-fluoropropyl) (4-(5,6,7,8-tetrahydro-1,8-naphthyridin-2-yl)butyl)amino)-2-((7-methoxyquinazolin-4-yl)amino) butanoic acid]"
18,< 50,"CO[C@H](C)CN(CCCCc1ccc2c(n1)NCCC2)CC[C@H](Nc1ccnc(-c2ccccc2)n1)C(=O)O [Compound 73, (S)-4-(((R)-2-methoxypropyl) (4-(5,6,7,8-tetrahydro-1,8-naphthyridin-2-yl)butyl)amino)-2-((2-phenylpyrimidin-4-yl)amino) butanoic acid]"
19,< 50,"CO[C@@H](C)CN(CCCCc1ccc2c(n1)NCCC2)CC[C@H](Nc1ncnc2ccccc12)C(=O)O [Compound 25, (S)-4-(((S)-2-methoxypropyl) (4-(5,6,7,8-tetrahydro-1,8-naphthyridin-2-yl)butyl)amino)-2-(quinazolin-4-ylamino) butanoic acid]"
20,< 50,"CO[C@H](C)CN(CCCCc1ccc2c(n1)NCCC2)CC[C@H](Nc1ncnc2cn[nH]c12)C(=O)O [Compound 79, (S)-2-((1H-pyrazolo[4,3-d]pyrimidin-7-yl)amino)-4-(((R)-2-methoxypropyl) (4-(5,6,7,8-tetrahydro-1,8-naphthyridin-2-yl)butyl)amino) butanoic acid]"
21,< 50,"CO[C@H](C)CN(CCCCc1ccc2c(n1)NCCC2)CC[C@H](Nc1ncnc2ccccc12)C(=O)O [Compound 62, (S)-4-(((R)-2-methoxypropyl) (4-(5,6,7,8-tetrahydro-1,8-naphthyridin-2-yl)butyl)amino)-2-(quinazolin-4-ylamino) butanoic acid]"
22,< 50,"O=C(O)[C@H](CCN(CCCCc1ccc2c(n1)NCCC2)CCOCC(F)(F)F)Nc1ncnc2cccnc12 [Compound 51, (S)-2-(pyrido[3,2-d]pyrimidin-4-ylamino)-4-((4-(5,6,7,8-tetrahydro-1,8-naphthyridin-2-yl)butyl) (2-(2,2,2-trifluoroethoxy)ethyl)amino) butanoic acid]"
23,< 50,"COC[C@@H](F)CN(CCCCc1ccc2c(n1)NCCC2)CC[C@H](Nc1ncnc2ccccc12)C(=O)O [Compound 31, (S)-4-(((S)-2-fluoro-3-methoxypropyl) (4-(5,6,7,8-tetrahydro-1,8-naphthyridin-2-yl)butyl)amino)-2-(quinazolin-4-ylamino) butanoic acid]"
24,< 50,"COCCN(CCCCc1ccc2c(n1)NCCC2)CC[C@H](Nc1ncnc2cc(F)ccc12)C(=O)O [Compound 7, (S)-2-((7-fluoroquinazolin-4-yl)amino)-4-((2-methoxyethyl) (4-(5,6,7,8-tetrahydro-1,8-naphthyridin-2-yl)butyl)amino) butanoic acid]"
